How the values were obtained:
CRBN/DDB1 = CRBN/DDB1 (Homo sapiens (Human), UniProt Q96SW2); assay: IC50 measurements for binding to CRBN/DDB1 (HTRF); settings: His tagged CRBN+DDB, Cy5-labeled Thalidomide probe, one hour
Summary of the method: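 HTRF competition binding with 2 nM His-tagged CRBN-DDB1 complex, 60 nM Cy5-thalidomide probe and 0.4 nM anti-His Tb cryptate in 50 mM HEPES pH 7.5, 1 mM TCEP, 0.01% Brij-35, 50 mM NaCl, 0.1% BSA. Read after 1 h at room temperature; IC50 from four-parameter dose-response fit.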

IKZF2 [1] = target: T1, IKZF2 (Homo sapiens (Human), UniProt Q96SW2+Q9UKS7); assay: In vitro IKZF2 FACS Assay in Jurkat cells; format: cell-based; settings: 24 hrs; for DC50: half maximal degradation concentration; for Dmax: maximal degradation percentage
T1 sequence (Q9UKS7 whole entry): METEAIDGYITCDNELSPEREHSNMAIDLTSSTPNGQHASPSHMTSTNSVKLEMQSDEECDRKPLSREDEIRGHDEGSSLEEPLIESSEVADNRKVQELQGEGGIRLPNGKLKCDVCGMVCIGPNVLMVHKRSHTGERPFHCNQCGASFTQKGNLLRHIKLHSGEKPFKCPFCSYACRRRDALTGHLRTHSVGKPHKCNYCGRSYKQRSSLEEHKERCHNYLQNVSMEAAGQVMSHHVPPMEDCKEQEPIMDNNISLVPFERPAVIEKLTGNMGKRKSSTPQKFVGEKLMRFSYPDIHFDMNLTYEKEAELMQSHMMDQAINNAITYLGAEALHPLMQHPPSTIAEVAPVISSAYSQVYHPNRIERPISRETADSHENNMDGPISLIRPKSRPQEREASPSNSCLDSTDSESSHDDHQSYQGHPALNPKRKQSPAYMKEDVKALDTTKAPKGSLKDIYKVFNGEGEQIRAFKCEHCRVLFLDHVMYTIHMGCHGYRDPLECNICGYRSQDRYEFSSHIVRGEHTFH
T1 sequence (Q96SW2 whole entry): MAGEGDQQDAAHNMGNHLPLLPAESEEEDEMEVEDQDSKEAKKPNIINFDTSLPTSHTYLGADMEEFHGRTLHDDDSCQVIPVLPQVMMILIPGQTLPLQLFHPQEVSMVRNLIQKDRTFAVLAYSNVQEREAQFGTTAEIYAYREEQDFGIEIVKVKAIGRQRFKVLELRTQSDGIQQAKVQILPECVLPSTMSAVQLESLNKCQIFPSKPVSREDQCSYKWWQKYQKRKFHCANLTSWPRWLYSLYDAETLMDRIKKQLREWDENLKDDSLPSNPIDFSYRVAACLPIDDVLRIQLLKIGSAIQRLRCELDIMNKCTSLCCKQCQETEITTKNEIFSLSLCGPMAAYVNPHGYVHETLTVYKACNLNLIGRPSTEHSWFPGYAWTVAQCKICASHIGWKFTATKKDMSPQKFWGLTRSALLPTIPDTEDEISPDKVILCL
T1 sequence (Q16531 2-1140 partner): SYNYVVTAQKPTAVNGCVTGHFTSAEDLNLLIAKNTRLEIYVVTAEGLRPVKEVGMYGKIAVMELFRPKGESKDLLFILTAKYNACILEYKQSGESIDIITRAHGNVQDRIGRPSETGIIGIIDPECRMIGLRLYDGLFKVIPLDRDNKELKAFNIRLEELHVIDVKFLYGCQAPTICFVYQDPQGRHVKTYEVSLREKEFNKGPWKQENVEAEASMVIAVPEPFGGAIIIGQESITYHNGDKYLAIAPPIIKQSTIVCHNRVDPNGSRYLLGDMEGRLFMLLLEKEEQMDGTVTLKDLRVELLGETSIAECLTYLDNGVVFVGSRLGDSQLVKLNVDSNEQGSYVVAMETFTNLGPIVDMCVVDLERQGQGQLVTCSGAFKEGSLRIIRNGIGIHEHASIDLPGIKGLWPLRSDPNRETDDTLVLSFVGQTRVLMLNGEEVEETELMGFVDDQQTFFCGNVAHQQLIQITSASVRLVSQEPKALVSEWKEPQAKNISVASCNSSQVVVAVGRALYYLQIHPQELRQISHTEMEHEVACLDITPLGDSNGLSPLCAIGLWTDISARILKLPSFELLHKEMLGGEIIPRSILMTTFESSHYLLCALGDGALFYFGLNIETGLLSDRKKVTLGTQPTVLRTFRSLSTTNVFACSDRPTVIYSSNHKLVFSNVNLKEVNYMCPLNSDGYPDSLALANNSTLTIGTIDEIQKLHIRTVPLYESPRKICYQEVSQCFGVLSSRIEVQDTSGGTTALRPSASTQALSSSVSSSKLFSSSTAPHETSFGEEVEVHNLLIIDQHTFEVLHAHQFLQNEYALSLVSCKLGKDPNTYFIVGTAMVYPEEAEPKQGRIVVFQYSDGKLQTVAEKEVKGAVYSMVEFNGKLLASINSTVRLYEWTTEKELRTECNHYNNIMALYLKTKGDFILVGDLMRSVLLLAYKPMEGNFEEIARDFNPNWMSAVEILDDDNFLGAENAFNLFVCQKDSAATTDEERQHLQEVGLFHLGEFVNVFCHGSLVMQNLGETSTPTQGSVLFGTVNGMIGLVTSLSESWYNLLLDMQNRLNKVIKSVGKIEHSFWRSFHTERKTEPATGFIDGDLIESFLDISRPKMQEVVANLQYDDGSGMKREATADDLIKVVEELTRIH
Description: In vitro IKZF2 FACS Assay
DC50, A: <1 nM; B: 1-10 nM; C: 10-100 nM; D: 100-1000 nM; E: >1000 nM. Dmax, A: >80%; B: 60-80%; C: 40-60%; D: 20-40%; E: <20%.

IKZF2 [2] = target: T1, IKZF2; assay: In vitro IKZF2 HiBit Assay (HEK293T Flp-in-HiBiT cells); format: cell-based; settings: HEK293T Flp-in-HiBiT cells, 6 hrs incubation; for DC50: read-out: IKZF2 HiBit DC50; for Dmax: HEK-293T, read-out: IKZF2 HiBit Dmax (%)
Summary of the method: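 HEK293T Flp-in cells carrying an endogenous N-terminal HiBiT tag on IKZF2 were exposed to compound for 6 h at 0.1% DMSO. The dilution series was 11 doses at 3-fold, diluted from 1 mM. Nano-Glo HiBiT lytic luminescence, normalized to DMSO, gave DC50 for 50% degradation and Dmax across the concentration range, both reported in letter bins.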

IKZF1 = IKZF1 (Homo sapiens (Human), UniProt Q13422+Q96SW2); assay: In vitro IKZF1 HiBit Assay (HEK293T Flp-in-HiBiT-IKZF1 stable cell line); format: cell-based; settings: HEK293T Flp-in-HiBiT-IKZF1 stable cell line, 6 hrs incubation; for DC50: read-out: IKZF1 HiBit DC50; for Dmax: HEK-293T, read-out: IKZF1 HiBit Dmax (%)
Sequence of IKZF1 (Q13422 whole entry): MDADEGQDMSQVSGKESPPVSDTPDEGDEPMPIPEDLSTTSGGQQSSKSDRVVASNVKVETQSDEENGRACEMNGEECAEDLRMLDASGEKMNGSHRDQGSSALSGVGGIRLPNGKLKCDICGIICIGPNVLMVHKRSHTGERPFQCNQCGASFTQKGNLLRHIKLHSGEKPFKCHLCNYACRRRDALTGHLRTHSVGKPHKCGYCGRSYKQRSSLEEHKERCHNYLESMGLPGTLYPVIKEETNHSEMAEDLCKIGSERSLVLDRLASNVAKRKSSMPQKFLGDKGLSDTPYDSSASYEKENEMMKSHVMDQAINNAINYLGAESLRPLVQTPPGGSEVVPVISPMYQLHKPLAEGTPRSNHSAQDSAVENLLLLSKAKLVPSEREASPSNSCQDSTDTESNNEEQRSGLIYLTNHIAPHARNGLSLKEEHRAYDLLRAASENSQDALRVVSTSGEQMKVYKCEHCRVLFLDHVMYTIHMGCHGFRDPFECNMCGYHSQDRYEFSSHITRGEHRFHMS
Sequence of IKZF1 (Q96SW2 whole entry): as the sequence (Q96SW2 whole entry) above
Sequence of IKZF1 (Q16531 2-1140 partner): as the sequence (Q16531 2-1140 partner) above
Summary of the method: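 HEK293T Flp-in cells carrying N-terminal HiBiT-tagged IKZF1 were exposed to compound (0.1% DMSO) for 6 h at 3000 cells/well. HiBiT luminescence was read after lytic LgBiT detection. DC50 and Dmax were taken from DMSO-normalized dose-response curves.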

Sequence of CRBN/DDB1 (Q96SW2 whole entry, species assumed): as the sequence (Q96SW2 whole entry) above
Sequence of CRBN/DDB1 (Q16531 whole entry partner, species assumed): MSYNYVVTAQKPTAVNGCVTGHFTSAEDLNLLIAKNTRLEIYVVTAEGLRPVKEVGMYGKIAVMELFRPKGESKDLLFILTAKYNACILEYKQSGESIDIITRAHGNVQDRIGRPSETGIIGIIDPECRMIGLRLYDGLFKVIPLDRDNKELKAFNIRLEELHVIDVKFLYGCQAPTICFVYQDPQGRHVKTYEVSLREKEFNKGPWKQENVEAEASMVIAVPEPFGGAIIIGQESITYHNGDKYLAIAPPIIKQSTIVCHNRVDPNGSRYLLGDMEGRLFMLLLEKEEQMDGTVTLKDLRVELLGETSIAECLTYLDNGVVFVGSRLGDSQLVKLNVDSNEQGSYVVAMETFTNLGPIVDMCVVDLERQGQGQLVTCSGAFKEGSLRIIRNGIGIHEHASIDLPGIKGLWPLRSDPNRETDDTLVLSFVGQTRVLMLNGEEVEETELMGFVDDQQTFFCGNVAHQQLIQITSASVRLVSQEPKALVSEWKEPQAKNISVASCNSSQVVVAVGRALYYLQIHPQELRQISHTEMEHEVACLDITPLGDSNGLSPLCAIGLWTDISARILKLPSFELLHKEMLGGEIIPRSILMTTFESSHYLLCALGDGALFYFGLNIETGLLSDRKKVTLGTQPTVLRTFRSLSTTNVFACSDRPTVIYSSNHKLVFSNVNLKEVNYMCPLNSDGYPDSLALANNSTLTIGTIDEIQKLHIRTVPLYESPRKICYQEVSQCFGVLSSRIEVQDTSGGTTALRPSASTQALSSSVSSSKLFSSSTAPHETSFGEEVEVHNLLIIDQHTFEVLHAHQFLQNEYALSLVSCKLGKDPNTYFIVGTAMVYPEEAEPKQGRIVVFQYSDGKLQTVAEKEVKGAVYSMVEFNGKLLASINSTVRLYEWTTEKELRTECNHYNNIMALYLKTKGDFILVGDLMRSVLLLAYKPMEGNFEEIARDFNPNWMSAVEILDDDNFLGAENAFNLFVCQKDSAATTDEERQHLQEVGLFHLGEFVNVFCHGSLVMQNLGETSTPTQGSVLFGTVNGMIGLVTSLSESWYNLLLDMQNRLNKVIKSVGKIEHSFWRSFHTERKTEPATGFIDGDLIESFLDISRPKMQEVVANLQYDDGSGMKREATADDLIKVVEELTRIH

| Structure (SMILES) | IC50 (CRBN/DDB1) [µM] | DC50 (IKZF2 [1]) [µM] | Dmax (IKZF2 [1]) [%] | DC50 (IKZF2 [2]) [µM] | Dmax (IKZF2 [2]) [%] | DC50 (IKZF1) [µM] | Dmax (IKZF1) [%] |
| --- | --- | --- | --- | --- | --- | --- | --- |
| O=C1CCC(N2Cc3cc(-c4cc(CN5CCCC5)c5ccn(C6CCC6)c5n4)ccc3C2=O)C(=O)N1 (stereo not drawn) [Example 128, 3-(5-(1-cyclobutyl-4-(pyrrolidin-1-ylmethyl)-1H-pyrrolo[2,3-b]pyridin-6-yl)-1-oxoisoindolin-2-yl) piperidine-2,6-dione] | 0.1 to 0.5 | 0.001 to 0.01 | > 80 | < 0.001 | > 80 | 0.01 to 0.1 | 20 to 40 |
| CC(C)Oc1ccnc2c(CN3CCCC3)cc(-c3ccc4c(c3)CN(C3CCC(=O)NC3=O)C4=O)nc12 (stereo not drawn) [Example 232, 3-(5-(8-isopropoxy-4-(pyrrolidin-1-ylmethyl)-1,5-naphthyridin-2-yl)-1-oxoisoindolin-2-yl) piperidine-2,6-dione] | 0.5 to 1 | 0.01 to 0.1 | 60 to 80 | 0.001 to 0.01 | 60 to 80 | > 10 | < 20 |
| Nc1n[nH]c2c(CN3CCC4(CC3)COC4)cc(-c3ccc4c(c3)CN(C3CCC(=O)NC3=O)C4=O)nc12 (stereo not drawn) [Example 216, 3-(5-(7-((2-oxa-7-azaspiro[3.5]nonan-7-yl)methyl)-3-amino-1H-pyrazolo[4,3-b]pyridin-5-yl)-1-oxoisoindolin-2-yl) piperidine-2,6-dione] | 1 to 5 | 0.1 to 1 | 60 to 80 | 0.01 to 0.1 | 60 to 80 | 0.1 to 1 | 20 to 40 |
| O=C1CCC(N2Cc3cc(-c4cc(CN5CCC(F)CC5)c5ccn(C6COC6)c5n4)ccc3C2=O)C(=O)N1 (stereo not drawn) [Example 187, 3-(5-(4-((4-fluoropiperidin-1-yl)methyl)-1-(oxetan-3-yl)-1H-pyrrolo[2,3-b]pyridin-6-yl)-1-oxoisoindolin-2-yl) piperidine-2,6-dione] | 0.1 to 0.5 | 0.001 to 0.01 | > 80 | 0.001 to 0.01 | > 80 | > 10 | < 20 |
| Cn1ccc2c(CN3CCCC3)c(Cl)c(-c3ccc4c(c3)CN(C3CCC(=O)NC3=O)C4=O)nc21 (stereo not drawn) [Example 229, 3-(5-(5-chloro-1-methyl-4-(pyrrolidin-1-ylmethyl)-1H-pyrrolo[2,3-b]pyridin-6-yl)-1-oxoisoindolin-2-yl) piperidine-2,6-dione] | 0.1 to 0.5 | 0.001 to 0.01 | 60 to 80 | 0.001 to 0.01 | 60 to 80 | > 10 | < 20 |
| O=C1CCC(N2Cc3cc(-c4cc(CN5CCC(CO)CC5)c5ccn(C6COC6)c5n4)ccc3C2=O)C(=O)N1 (stereo not drawn) [Example 163, 3-(5-(4-((4-(hydroxymethyl)piperidin-1-yl)methyl)-1-(oxetan-3-yl)-1H-pyrrolo[2,3-b]pyridin-6-yl)-1-oxoisoindolin-2-yl) piperidine-2,6-dione] | 0.1 to 0.5 | 0.001 to 0.01 | > 80 | 0.001 to 0.01 | 60 to 80 | 0.1 to 1 | 20 to 40 |
| O=C1CCC(N2Cc3cc(-c4cc(CN5CCC(CO)C5)c5ccn(C6COC6)c5n4)ccc3C2=O)C(=O)N1 (stereo not drawn) [Example 164, 3-(5-(4-((3-(hydroxymethyl)pyrrolidin-1-yl)methyl)-1-(oxetan-3-yl)-1H-pyrrolo[2,3-b]pyridin-6-yl)-1-oxoisoindolin-2-yl) piperidine-2,6-dione] | 0.1 to 0.5 | 0.01 to 0.1 | > 80 | 0.01 to 0.1 | 60 to 80 | 0.1 to 1 | 20 to 40 |
| O=C1CCC(N2Cc3cc(-c4cc(CN5CCCC5)c5[nH]ncc5n4)ccc3C2=O)C(=O)N1 (stereo not drawn) [Example 307, 3-(1-oxo-5-(7-(pyrrolidin-1-ylmethyl)-1H-pyrazolo[4,3-b]pyridin-5-yl)isoindolin-2-yl) piperidine-2,6-dione] | 0.1 to 0.5 | 0.001 to 0.01 | > 80 | 0.001 to 0.01 | > 80 | 1 to 10 | 20 to 40 |
| O=C1CCC(N2Cc3cc(-c4cc(CN5CCCC5)c5ncn(C6COC6)c5n4)ccc3C2=O)C(=O)N1 (stereo not drawn) [Example 211, 3-(5-(3-(oxetan-3-yl)-7-(pyrrolidin-1-ylmethyl)-3H-imidazo[4,5-b]pyridin-5-yl)-1-oxoisoindolin-2-yl) piperidine-2,6-dione] | 0.5 to 1 | 0.01 to 0.1 | 60 to 80 | 0.01 to 0.1 | 60 to 80 | > 10 | < 20 |
| O=C1CCC(N2Cc3cc(-c4cc(CN5CC6COCC(C6)C5)c5cc[nH]c5n4)ccc3C2=O)C(=O)N1 (stereo not drawn) [Example 121, 3-(5-(4-((3-oxa-7-azabicyclo[3.3.1]nonan-7-yl)methyl)-1H-pyrrolo[2,3-b]pyridin-6-yl)-1-oxoisoindolin-2-yl) piperidine-2,6-dio] | 1 to 5 | 0.01 to 0.1 | > 80 | 0.001 to 0.01 | > 80 | > 10 | < 20 |
| CC(C)Nc1n[nH]c2c(CN3CCCC3)cc(-c3ccc4c(c3Cl)CN(C3CCC(=O)NC3=O)C4=O)nc12 (stereo not drawn) [Example 227, 3-(4-chloro-5-(3-(isopropylamino)-7-(pyrrolidin-1-ylmethyl)-1H-pyrazolo[4,3-b]pyridin-5-yl)-1-oxoisoindolin-2-yl) piperidine-2,6-dione] | 0.5 to 1 | 0.01 to 0.1 | > 80 | 0.001 to 0.01 | 60 to 80 | > 10 | < 20 |
| CN(C)c1ccnc2c(CN3CCCC3)cc(-c3ccc4c(c3)CN(C3CCC(=O)NC3=O)C4=O)nc12 (stereo not drawn) [Example 237, 3-(5-(8-(dimethylamino)-4-(pyrrolidin-1-ylmethyl)-1,5-naphthyridin-2-yl)-1-oxoisoindolin-2-yl) piperidine-2,6-dione] | 1 to 5 | 0.01 to 0.1 | 40 to 60 | 0.01 to 0.1 | 60 to 80 | 0.001 to 0.01 | 20 to 40 |
| O=C1CCC(N2Cc3cc(-c4cc(CN5CC(F)C5)c5cc[nH]c5n4)ccc3C2=O)C(=O)N1 (stereo not drawn) [Example 117, 3-(5-(4-((3-fluoroazetidin-1-yl)methyl)-1H-pyrrolo[2,3-b]pyridin-6-yl)-1-oxoisoindolin-2-yl) piperidine-2,6-dione] | 0.1 to 0.5 | 0.001 to 0.01 | > 80 | 0.001 to 0.01 | > 80 | > 10 | < 20 |
| CC1CCN(Cc2cc(-c3ccc4c(c3)CN(C3CCC(=O)NC3=O)C4=O)n3cncc3c2)C1 (stereo not drawn) [Example 6, 3-(5-(7-((3-methylpyrrolidin-1-yl)methyl)imidazo[1,5-a]pyridin-5-yl)-1-oxoisoindolin-2-yl) piperidine-2,6-dione] | 0.1 to 0.5 | 0.01 to 0.1 | 60 to 80 | 0.01 to 0.1 | 60 to 80 | > 10 | < 20 |
| O=C1CCC(N2Cc3cc(-c4cc(CN5CCCC5)c5nccc(OC6CCC6)c5n4)ccc3C2=O)C(=O)N1 (stereo not drawn) [Example 239, 3-(5-(8-cyclobutoxy-4-(pyrrolidin-1-ylmethyl)-1,5-naphthyridin-2-yl)-1-oxoisoindolin-2-yl) piperidine-2,6-dione] | 1 to 5 | 0.01 to 0.1 | 60 to 80 | 0.001 to 0.01 | 60 to 80 | > 10 | < 20 |

Source: patent publication US20250214991A1 (Oncopia Therapeutics, Inc. d/b/a/ SK Life Science Labs, priority 2022, published 2025)
